Measured values as given in PubChem BioAssay (NCI).
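How tested: cells in 96-well plates exposed to compound for 48 hours at five concentrations. At the GI50, growth is halved. TGI denotes the concentration required for complete inhibition of growth.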

Key:
Assay in all cases: inhibition of tumour cell growth, NCI panel, 48 h
HOP-62 NSCLC = tested on: HOP-62 NSCLC
HT29 colon = tested on: HT29 colon
KM12 colon = tested on: KM12 colon
NCI-H23 lung = tested on: NCI-H23 lung
OVCAR-4 ovarian = tested on: OVCAR-4 ovarian
RXF 393 renal = tested on: RXF 393 renal
SK-OV-3 ovarian = tested on: SK-OV-3 ovarian
UACC-257 melanoma = tested on: UACC-257 melanoma
MDA-MB-231 breast = tested on: MDA-MB-231 breast
T-47D breast = tested on: T-47D breast

Structure (SMILES)	TGI (HOP-62 NSCLC) [µM]	TGI (HT29 colon) [µM]	TGI (KM12 colon) [µM]	TGI (NCI-H23 lung) [µM]	TGI (OVCAR-4 ovarian) [µM]	TGI (RXF 393 renal) [µM]	TGI (SK-OV-3 ovarian) [µM]	TGI (UACC-257 melanoma) [µM]	TGI (MDA-MB-231 breast) [µM]	TGI (T-47D breast) [µM]	GI50 (HOP-62 NSCLC) [µM]	GI50 (KM12 colon) [µM]	GI50 (MDA-MB-231 breast) [µM]	GI50 (NCI-H23 lung) [µM]	GI50 (OVCAR-4 ovarian) [µM]	GI50 (RXF 393 renal) [µM]	GI50 (SK-OV-3 ovarian) [µM]	GI50 (T-47D breast) [µM]	GI50 (UACC-257 melanoma) [µM]	GI50 (HT29 colon) [µM]
CC(=O)CCCCO	> 100	> 100	> 100	> 100	> 100	> 100	> 100	> 100												
Cc1ccc2c(c1)NC(=O)CC(c1ccccc1)=N2	> 100	> 100	> 100	> 100	> 100		> 100	> 100	79.9	> 100										
Cc1c(C)[n+](=O)c(C)c(C)n1[O-]	> 100		> 100	> 100	> 100	> 100	> 100	> 100	> 100	> 100	> 100	> 100	> 100	> 100	> 100	> 100	> 100	> 100	> 100	
S=C1Nc2ccc(Cl)cc2C2(c3ccccc3)N3CCN=C3NN12 (stereo unspecified)	> 100	> 100	> 100	> 100	> 100		> 100	> 100	> 100	99	33.3	52.1	32.5	> 100	26.1		> 100	30.8	37	28.1
O=C(CC(=O)N1N=C(N2c3ccccc3Sc3ccccc32)CC1c1ccccc1)Nc1ccc(Cl)cc1 (stereo unspecified)	> 100	> 100	> 100	> 100	> 100	> 100	> 100	> 100												
C1OC1CO[C@@H]1CO[C@H]2[C@@H]1OC[C@H]2OCC1CO1 (stereo partly specified)	> 100	> 100	> 100	> 100	> 100	> 100	> 100	> 100												
CN(C)C(=O)c1cc2cnc(Nc3ccc(-c4csc5c(=O)cc(N6CCOCC6)oc45)cc3)nc2n1C1CCCC1	1.67	> 100	0.682	0.87	> 53.7	0.388	2.88	0.909		> 100	0.269	0.0414		0.182	0.293	0.163	0.478	0.171	0.269	0.27
CC#CC1/C(=C\C(=O)OC)CCCC1O (stereo unspecified)	> 100	> 100	> 100	> 100	> 100	> 100	> 100	> 100												
c1ccc2c(c1)[nH]c1cnc3c4cccnc4[nH]c3c12	96.1	34.6		62.1	32.6	34.7		52.4												
COc1cc(-c2nc3sc4c(c3c(=O)[nH]2)CCCCCC4)cc(OC)c1OC	> 33.2		> 33.2	> 33.2		2.55	16.4	> 33.2	29.5	> 33.2	1.36	1.21	1.07	1.43		0.636	0.89	1.4	3	
O=C(Cc1cccc(OC(F)(F)F)c1)Nc1ccc(CCCCc2nnc(NC(=O)Cc3ccccn3)s2)nn1		96.7	> 100	45.8	29	22.7	25.1	> 100	> 100	26.5		14.1	29.8	13.1	7.23	4.34	11.6	3.46	29.3	24.3
O=c1cc(-c2ccccc2)[nH]n1-c1nc2ccccc2[nH]1	> 100		> 100	> 100		34.8	> 100	> 100	93.6	> 100	4.96	5.28	6.92	9.69		3.94	8.58	4.41	6.18	
NC(=O)C(c1ccccc1)N1CCOCC1 (stereo unspecified)	> 100	> 100	> 100	> 100	> 100	> 100	> 100	> 100												
O=C1C(=O)N(c2ccc(Cl)cc2Cl)C(=O)C(=O)C1c1nc2ccccc2o1	> 100	> 100	> 100	> 100	> 100		> 100	> 100												
O=C1CN(C(=O)c2ccccc2)Cc2[nH]c3ccccc3c21	> 100	> 100	> 100	> 100	> 100	> 100	> 100	> 100												
Cc1cc(NS(=O)(=O)c2ccc(NC(=O)c3cccc4c(Nc5ccc(S(=O)(=O)N=C(N)N)cc5)c5ccccc5nc34)cc2)no1	> 100	> 100	> 100	> 100	> 100	> 100	> 100	> 100												
NC(N)=NNC(=O)CCCCCCCC(=O)NN=C(N)N	> 100	> 100	> 100	> 100	> 100	> 100	> 100	> 100												
COc1ccc(-c2ccc(-c3ccc(-c4ccc(C(=N)N)cc4)s3)s2)cc1OC	17.9		2.16	6.26		34.6	37.3	54.3		31.8	3.26	0.749		2.43		11.2	14.5	3.09	22	
CC(=O)OC1(C)C(=O)OC1(C)C(C)=O (stereo unspecified)		> 100	> 100	> 100	> 100	> 100	> 100	> 100												
